Data: patent publication US10136641B2, “Methods for increasing tolerance to abiotic stress in plants” (Crop Microclimate Management Inc., priority 2010, dated 2018)

How the values were obtained:
Assay type in all cases: in vivo
[1] = test system: citrus; assay: Citrus field trial (heat, light and/or water stress), Cobram, Victoria
Description: (§1) Field trials were carried out in parts of commercial orchards or fields in Australia during the 2009-2010 season. Crops were evaluated for specific parameters impacted by abiotic stress including fruit diameter, fruit number, amount of sunburn damage and number of flowers aborted. The crops evaluated were apple, citrus, tomato and wine grape. […] Heat and light stress occurred early during the trials, with exposures to 40° C.^+ temperatures in November; about 4-6 weeks after the trials were initiated. This period of stress was followed by varied temperatures including temperatures that were in the mid-to-high 30° C. range.
(§2) The foliage and fruit for each crop were assessed prior to treatment and then at regular intervals through the season for any signs of phytotoxicity. No phytotoxicity was observed on either the foliage or the fruit for any of the applied formulations for any of the crops. In addition, all trials were determined to be disease and pest free.
(§3) Screen (kaolin), Screen Duo (kaolin and salicylate), Surround (kaolin) and Parasol (calcium carbonate) are standard treatments used in the management of heat, light and water stress. Kaolin and calcium carbonate reduce stress by reflecting UV, visible, and infrared radiation, thereby reducing the impact of excess heat and light on photosynthesis and other cellular processes.
(§4) The citrus and apple trials received four and five applications, respectively, of the various formulations, set forth in Table 1 (below), prior to experiencing abiotic stress. Tomatoes received biweekly applications of the treatments throughout the trial.
In general, a lower fruit load results in greater fruit diameter at harvest. Early season differences in fruit diameter are due to variation in cell division. It is well documented that at equal fruit load, heat stress will result in smaller fruit (i.e., reduced fruit diameter). In addition, heat, light, and/or water stress can also result in fruit number losses, commonly known in citrus as “June drop.” Past studies indicate that protecting the crop with Screen/Duo starting at petal fall can result in larger fruit and higher numbers of fruit, most likely by reducing the crop temperature and reducing stress signaling reactive oxygen (ROX).
The trial described below was conducted in Cobram, Victoria, Australia. Several parameters were measured as responses to heat, light and/or water stress: early citrus fruit diameter, number of fruit per cubic meter foliage, percent sunburn, later season fruit diameter and kilograms of fruit per cubic meter foliage. Sunburn damage is the late stage result of combined heat and light stress. […] There was little correlation observed between fruit number and fruit size (correlation […]).

[2] = test system: apple; assay: Apple field trial (heat, light and/or water stress), Shepparton, Victoria
Description: as §1, §2, §3, §4
As described above for citrus, early season heat, light and/or water stress can also impede cell division that occurs during Phase I of fruit development of apples. In the apple trial, which was conducted in Shepparton, Victoria, Australia, the load of fruit on each of the trees was thinned to an approximately equal value (approximately 200 fruit per tree; +/−5%), thus eliminating the confounding effect of fruit load on fruit diameter. To assess sunburn/heat stress damage, all apples were harvested from the center tree in each plot and rated according to the following rating system.
Rating Visual Assessment of the Fruit
1 Slight yellowing on the exposed side (<5% of the fruit area)
2 Noticeable yellowing on the exposed side (>5% of the fruit area)
3 Moderate sunburn with pronounced lenticels (fruit unmarketable)
4 Significant sunburn (fruit unmarketable)

[3] = test system: tomato; assay: Tomato field trial (flower abortion, sunburn, yield), Echuca, Victoria
Description: as §1
The foliage and fruit for each crop were assessed prior to treatment and then at regular intervals through the season for any signs of phytotoxicity.
Kaolin and calcium carbonate reduce stress by reflecting UV, visible, and infrared radiation, thereby reducing the impact of excess heat and light on photosynthesis and other cellular processes.
as §4
Flower abortion in tomato results in significant yield losses in tomato and begins at temperatures of 28 C, becoming more severe as temperatures rise. Further, once fruit has developed, it is susceptible to damage from heat and light, expressed as sunburn.
In the present study, tomatoes, located in a commercial field outside Echuca, Victoria, Australia, were treated with azeleic acid (CMM2009A). The number of aborted flowers per plot was assessed periodically during the season. Tomato yield and sunburn damage was assessed as follows. Tomatoes from the center of each plot were harvested from a one meter section of the tomato beds. The fruit was visually assessed as being either red in color and suitable for processing, green in color, or sun burnt. The fruit from these three categories were kept separate, weighed and recorded.

[4] = test system: Tomato plants; assay: Tomato pot trial, heat and light stress in the greenhouse; settings: for Avg. growth in cm. (tomato fruits exposed to heat and light stress): April 2-May 10; for Avg growth in cm. (tomato fruits exposed to heat and light stress): April 2-May 18
Description: Tomato plants were exposed to heat and light stress in the greenhouse. Control plants had no treatment or were treated with Screen, Screen Plus1, Screen Plus2, or Screen Plus3, The experimental plants were treated with azelaic acid at 10^−4 M or 10^−3 M applied alone or in combination with Screen, Screen Plus1, Screen Plus2, or Screen Plus3.

[5] = test system: wine grape; assay: Wine grape field trial (sunburn/heat stress, yield), Kialla, Victoria
Description: as §1, §2, §3
The trial described below was conducted in Kialla, Victoria, Australia. The trial design was a randomized complete block with four replicates. Each plot comprises one panel of vines having four vines. For yield measurements the grapes were harvested from each of the two center vines in each panel and bunch numbers and weights were recorded. For assessment of sunburn/heat stress damage, the bunches of grapes were rated according to the following system: […]

[6] = test system: tomatoes; assay: Tomato pot study with sebacic acid (high heat, light and water stress)
Description: A tomato pot study was conducted with sebacic acid to determine the activity of sebacic acid in increasing tolerance to abiotic stress. The tomatoes were grown in a standard medium in pots and subjected to the abiotic stresses of high heat, light, and water stress. Growth of the plants was used as a measure of the ability of the sebacic acid to reduce the impact of abiotic stress. Growth measurements were taken 32 days after treatment with sebacic acid

[7] = citrus, versus standard treatments
[8] = apple field trial, rates per Table 3
[9] = azelaic at 10^−4M where applied, Screen applications at rate equivalent of 25 kg/ha
[10] = wine grape field trial, 10 Mar. 2010, four applications

O=C(O)CCCCCCCC(=O)O [Azeleic acid, azelaic acid (nonanedioic acid)]
Fruit Number per cubic meter ([1]; citrus field trial, 6 Jan. 2010, per cubic meter foliage, four applications, rates per Table 2): 10.62 per cubic meter | Fruit Diameter (mm) ([1]; citrus field trial, 12 Apr. 2010 (later season), four applications, rates per Table 2): 71.59 mm | Fruit Diameter (mm) ([1]; citrus field trial, 14 Dec. 2010 (early fruit diameter), four applications, rates per Rate column of Table 2): 29.49 mm | Percent Sunburn ([1]; citrus field trial, 28 Jan. 2010, four applications, rates per Table 2): 5.6% | kgs/cubic meter of foliage ([1]; citrus field trial, 29 Sep. 2010, kilograms of fruit, four applications, rates per Table 2): 3.8 kgs/cubic meter of foliage | Protecting cell division, as measured by early fruit diameter (in words) ([1]; citrus, azelaic acid alone versus Screen, Screen Duo, Surround and Parasol): as effective as the standard treatments | Protection from sunburn damage (in words) [1, 7]: equal to that obtained using the standard treatments | Reducing fruit loss (in words) [1, 7]: as effective in reducing fruit loss | Fruit Diameter (mm) ([2]; apple field trial, 12 Dec. 2010, fruit load thinned to approx. 200 fruit per tree, rates per Table 3): 39.84 mm | % Fruit Sunburn 1&2 ([2]; apple field trial, 16 Feb. 2010, 1&2 are export grade or commercially acceptable grade apples, rates per Table 3): 87.4% | Yield kg/tree ([2]; apple field trial, 17 Mar. 2010, rates per Table 3): 42.8 kg/tree | Apple Size g/apple [2, 8]: 152 g/apple | Marketable Yield kg/tree [2, 8]: 37.4 kg/tree | Protecting cell division as measured by fruit diameter, percent sunburn, apple size, yield and marketable yield (in words) ([2]; apple, alone or in combination with kaolin, salicylate, glycine betaine, or multiples thereof): as effective as the standard treatments | Yield Red MT/ha ([3]; 12 Mar. 2010, red fruit suitable for processing, ten applications): 131 MT/ha | Yield Sunburn MT/ha ([3]; 12 Mar. 2010, sun burnt fruit, ten applications): 6.6 MT/ha | Soluble Solids MT/ha ([3]; 12 Mar. 2010, ten applications): 6.2 MT/ha | Total Yield MT/ha ([3]; 12 Mar. 2010, ten applications): 137.6 MT/ha | Number Sunburn Fruit per plot ([3]; 20 Feb. 2010, ten applications, rates per Table 4): 21.3 per plot | Aborted Flowers per sq m of the plot ([3]; 20 Jan. 2010, ten applications, rates per Table 4): 5 per sq m of the plot | Protection from sunburn damage (in words) ([3]; alone or in combination with salicylate, kaolin, glycine betaine): equivalent to or better than the standard treatments | Number of flowers aborted (in words) ([3]; versus standard treatments): reduce the number of flowers aborted to the same degree as the standard treatments | Avg. growth in cm. (tomato fruits exposed to heat and light stress) ([4]; azelaic at 10^−3M, no Screen): 8.0 cm | Avg. growth in cm. (tomato fruits exposed to heat and light stress) [4, 9]: 11.0 cm | Avg growth in cm. (tomato fruits exposed to heat and light stress) ([4]; azelaic at 10^−3M, no Screen): 6.1 cm | Avg growth in cm. (tomato fruits exposed to heat and light stress) [4, 9]: 8.7 cm | Protection from the abiotic stress as measured by average fruit size (in words) ([4]; tomato pot trial, azelaic acid at 10^−4 M): equivalent to or better than the standard treatments | Bunch Weight (grams) ([5]; wine grape field trial, 10 Mar. 2010, average weight of a bunch, four applications): 94.7 grams | Yield kg/ha [5, 10]: 9230 kg/ha | Yield kg/vine [5, 10]: 3.6 kg/vine | % Bunches Rating 1 + 2 ([5]; wine grape field trial, 10 Mar. 2010, rating 1 = 0%, 2 = 1-5% incidence of sunburn/heat stress on bunches, four applications, rates per Table 6): 96.8% | Protection from heat, water and light stress (bunch rating, yield, bunch weight; in words) ([5]; wine grape, alone or in combination with salicylate, kaolin, or combinations thereof): equivalent to or better than the standard treatments

sebacic acid (decanedioic acid)
Growth (mm) ([6]; tomato plants in pots, 1 × 10−4M, 32 days after treatment, high heat, light and water stress): 25.3 mm | Growth compared with the untreated plants (in words) ([6]; tomato pot trial, Table 7): statistically significant greater growth
